Results on 30 compounds are retold here after patent US7994209B2, “3-phenoxymethylpyrrolidine compounds” (Theravance, Inc., priority 2009, dated 2011).

Marks after values point to notes of the source that are not given here.

Test [1] concerns the target T1, hSERT (Homo sapiens, UniProt P31645). The test can be described thus: hSERT membrane radioligand binding assay (3H-citalopram), Assay 1. The settings on record: hSERT HEK-293 membranes, 1.0 nM 3H-citalopram, values given as lower bounds; for Ki: SERT pKi.
Test [2] addresses T1, hSERT. The test can be described thus: fluorescence-based serotonin reuptake inhibition assay (Tsuruda et al. 2010; data indicated by an asterisk). The test is classed as cell-based. On the set-up: expressed in transfected cells; host or cells: HEK-293. Conditions: fluorescence-based assay (values with asterisk); for IC50: read-out: SERT pIC50 (converted).
Test [3] concerns the target T2, hNET (Homo sapiens, UniProt P23975). The test can be described thus: fluorescence-based norepinephrine reuptake inhibition assay (Tsuruda et al. 2010; data indicated by an asterisk). More on the design: expressed in transfected cells; host or cells: HEK-293. The test is classed as cell-based. The settings on record: norepinephrine reuptake inhibition, fluorescence-based assay (values with asterisk); for IC50: read-out: NET pIC50 (converted).

Test [4] deals with T2, hNET. The test can be described thus: hNET membrane radioligand binding assay (3H-nisoxetine), Assay 1.

T2 sequence (P23975 whole entry): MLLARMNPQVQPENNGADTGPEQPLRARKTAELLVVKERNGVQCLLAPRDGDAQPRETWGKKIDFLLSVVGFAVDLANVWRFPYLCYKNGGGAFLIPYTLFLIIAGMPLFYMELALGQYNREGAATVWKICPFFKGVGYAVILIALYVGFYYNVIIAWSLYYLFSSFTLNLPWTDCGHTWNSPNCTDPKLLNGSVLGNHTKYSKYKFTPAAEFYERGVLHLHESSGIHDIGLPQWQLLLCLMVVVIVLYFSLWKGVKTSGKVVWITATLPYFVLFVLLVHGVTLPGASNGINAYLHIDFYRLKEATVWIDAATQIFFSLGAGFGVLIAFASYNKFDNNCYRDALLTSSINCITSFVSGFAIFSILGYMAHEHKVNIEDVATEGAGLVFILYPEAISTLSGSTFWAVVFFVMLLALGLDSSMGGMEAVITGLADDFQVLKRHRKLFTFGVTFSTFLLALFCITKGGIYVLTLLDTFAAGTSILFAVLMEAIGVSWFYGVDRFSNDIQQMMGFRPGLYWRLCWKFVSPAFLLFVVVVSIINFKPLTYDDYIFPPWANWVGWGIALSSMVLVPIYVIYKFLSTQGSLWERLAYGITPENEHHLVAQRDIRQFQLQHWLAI
T1 sequence (P31645 whole entry): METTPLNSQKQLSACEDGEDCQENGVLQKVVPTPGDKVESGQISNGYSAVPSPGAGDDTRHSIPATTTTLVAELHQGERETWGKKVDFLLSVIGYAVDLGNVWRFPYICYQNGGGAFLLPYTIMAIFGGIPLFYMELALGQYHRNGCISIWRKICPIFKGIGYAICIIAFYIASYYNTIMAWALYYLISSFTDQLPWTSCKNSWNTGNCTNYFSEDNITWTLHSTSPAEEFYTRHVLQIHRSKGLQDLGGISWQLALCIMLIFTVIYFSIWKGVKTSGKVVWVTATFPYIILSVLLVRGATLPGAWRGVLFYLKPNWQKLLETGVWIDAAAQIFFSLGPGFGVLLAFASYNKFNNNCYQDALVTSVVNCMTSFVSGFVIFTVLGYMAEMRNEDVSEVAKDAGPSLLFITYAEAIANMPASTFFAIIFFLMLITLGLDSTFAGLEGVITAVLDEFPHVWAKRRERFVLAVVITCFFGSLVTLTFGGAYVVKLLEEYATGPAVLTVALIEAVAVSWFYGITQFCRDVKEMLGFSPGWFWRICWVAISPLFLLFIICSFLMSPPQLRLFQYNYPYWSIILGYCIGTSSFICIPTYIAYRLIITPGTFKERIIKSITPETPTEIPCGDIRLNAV

Regarding `Cc1cc(O[C@H](C2CC2)[C@H]2CCNC2)ccc1Cl` [Example 16-95, (S)-3-[(R)-(4-Chloro-3-methylphenoxy)cyclopropylmethyl]pyrrolidine], the Ki is no more than 10 nM on hSERT [1] and no more than 100 nM on hNET [4]. The figures for the IC50 at hSERT [2] and on hNET [3] were no more than 10 nM and no more than 100 nM, respectively.
As to `CC(C)[C@H](Oc1c(Cl)cccc1Cl)[C@H]1CCNC1` [Example 6-28, (S)-3-[(S)-1-(2,6-Dichlorophenoxy)-2-methylpropyl]pyrrolidine], the Ki on hSERT [1] and at hNET [4] was no more than 10 nM each time. Also, the results for the IC50 on hSERT [2] and at hNET [3] were no more than 100 nM and no more than 10 nM, respectively.
Turning to `CCC[C@@H](Oc1cc(Cl)cc(Cl)c1)[C@@H]1CCNC1` [Example 4-9, (R)-3-[(R)-1-(3,5-Dichlorophenoxy)butyl]pyrrolidine], the Ki at hSERT [1] and on hNET [4] was no more than 10 nM throughout. The IC50 at hSERT [2] and at hNET [3] was no more than 10 nM each time.
Regarding `Cc1ccc(O[C@@H](C2CC2)[C@H]2CCNC2)c(F)c1F` [Example 16-50, (S)-3-[(S)cyclopropyl-(2,3-difluoro-4-methylphenoxy)methyl]pyrrolidine], the Ki on hSERT [1] and at hNET [4] was no more than 10 nM in each case. Further, the IC50 at hSERT [2] and on hNET [3] was no more than 10 nM in each case.
`Cc1ccc(F)c(O[C@H](C2CC2)[C@H]2CCNC2)c1Cl` [Example 16-63, (S)-3-[(R)-(2-Chloro-6-fluoro-3-methylphenoxy)cyclopropylmethyl]pyrrolidine]: the Ki at hSERT [1] and on hNET [4] was no more than 10 nM in each case. Moreover, the values for the IC50 on hSERT [2] and at hNET [3] were no more than 100 nM and no more than 10 nM, respectively.
Regarding `CC(C)C[C@H](Oc1c(Cl)cccc1Cl)[C@@H]1CCNC1` [Example 10-56, (R)-3-[(S)-1-(2,6-Dichlorophenoxy)-3-methylbutyl]pyrrolidine], the inhibitory constant (Ki) on hSERT [1] and at hNET [4] was no more than 10 nM each time. Also, the IC50 on hSERT [2] and at hNET [3] was no more than 100 nM each time.
For `Clc1ccc(O[C@@H](C2CC2)[C@H]2CCNC2)cc1Cl` [Example 16-87, (S)-3-[(S)cyclopropyl-(3,4-dichlorophenoxy)methyl]pyrrolidine], the Ki at hSERT [1] and on hNET [4] was no more than 10 nM throughout. The IC50 at hSERT [2] and on hNET [3] was no more than 10 nM in each case.
Consider `CCC[C@@H](Oc1cccc(Cl)c1C(F)(F)F)[C@@H]1CCNC1` [Example 4-71, (R)-3-[(R)-1-(3-Chloro-2-trifluoromethylphenoxy)butyl]pyrrolidine], for which the Ki at hSERT [1] and at hNET [4] was no more than 10 nM throughout. Further, the IC50 on hSERT [2] and on hNET [3] was no more than 100 nM each time.
On to “(S)-3-[(R)-Cyclopropyl-(2-methyl-3-vinylphenoxy)methyl]pyrrolidine [Example 23-1]”, for which the “SERT pKi” value on hSERT [1] is reported as “≧8.0”. For the same compound, on hSERT [2], the “SERT pIC50” value was “≧8.0*”. The “NET pIC50” value at hNET [3] is listed as “≧8.0*”. For the same compound, the “NET pKi” value on hNET [4] (hNET HEK-293 membranes, 1.0 nM 3H-nisoxetine, values given as lower bounds) is recorded as “≧8.0”.
As for `Fc1cc(Cl)cc(F)c1O[C@H](C1CC1)[C@H]1CCNC1` [Example 16-80, (S)-3-[(R)-(4-Chloro-2,6-difluorophenoxy)cyclopropylmethyl]pyrrolidine], the Ki on hSERT [1] and on hNET [4] was no more than 10 nM each time. Besides, the IC50 on hSERT [2] and on hNET [3] was no more than 10 nM throughout.
Turning to `Fc1ccc(Cl)c(F)c1O[C@@H](C1CC1)[C@H]1CCNC1` [Example 16-66, (S)-3-[(S)-(3-Chloro-2,6-difluorophenoxy)cyclopropylmethyl]pyrrolidine], the Ki at hSERT [1] and at hNET [4] was no more than 10 nM in each case. Further, the IC50 is no more than 100 nM at hSERT [2] and no more than 10 nM on hNET [3].
On to `COc1c(F)ccc(O[C@@H](C2CC2)[C@H]2CCNC2)c1F` [Example 16-54, (S)-3-[(S)cyclopropyl-(2,4-difluoro-3-methoxyphenoxy)methyl]pyrrolidine], for which the inhibitory constant (Ki) on hSERT [1] and at hNET [4] was no more than 10 nM in each case. The IC50 on hSERT [2] and on hNET [3] was no more than 10 nM in each case.
Regarding `Fc1c(Cl)ccc(O[C@@H](C2CC2)[C@H]2CCNC2)c1Cl` [Example 16-52, (S)-3-[(S)cyclopropyl-(2,4-dichloro-3-fluorophenoxy)methyl]pyrrolidine], the inhibition constant (Ki) on hSERT [1] and at hNET [4] was no more than 10 nM in each case. The IC50 at hSERT [2] and at hNET [3] was no more than 10 nM throughout.
On to `CC(C)C[C@H](Oc1cc(Cl)cc(Cl)c1)[C@@H]1CCNC1` [Example 10-80, (R)-3-[(S)-1-(3,5-Dichlorophenoxy)-3-methylbutyl]pyrrolidine], for which the Ki on hSERT [1] and at hNET [4] was no more than 10 nM throughout. The IC50 on hSERT [2] and on hNET [3] was no more than 10 nM each time.
In the case of `COc1c(O[C@H](C2CC2)[C@H]2CCNC2)ccc(Cl)c1Cl` [Example 16-56, (S)-3-[(R)cyclopropyl-(3,4-dichloro-2-methoxyphenoxy)methyl]pyrrolidine], the inhibition constant Ki on hSERT [1] is no more than 10 nM; on hNET [4], no more than 316 nM. In addition, the IC50 on hSERT [2] is no more than 10 nM; on hNET [3], no more than 316 nM.
In the case of `CC(C)C[C@H](Oc1cccc(Cl)c1Cl)[C@@H]1CCNC1` [Example 10-24, (R)-3-[(S)-1-(2,3-Dichlorophenoxy)-3-methylbutyl]pyrrolidine], the Ki on hSERT [1] and at hNET [4] was no more than 10 nM throughout. Besides, the IC50 at hSERT [2] and at hNET [3] was no more than 10 nM throughout.
Turning to `Cc1cccc(O[C@@H](C2CC2)[C@H]2CCNC2)c1C` [Example 16-12, (S)-3-[(S)cyclopropyl-(2,3-dimethylphenoxy)-methyl]pyrrolidine], the Ki at hSERT [1] and at hNET [4] was no more than 10 nM throughout. The IC50 on hSERT [2] and at hNET [3] was no more than 10 nM each time.
`c1ccc2c(O[C@@H](C3CC3)[C@H]3CCNC3)cccc2c1` [Example 22, (S)-3-[(S)-Cyclopropyl(naphthalen-1-yloxy)methyl]pyrrolidine]: the Ki at hSERT [1] and on hNET [4] was no more than 10 nM throughout. The IC50 on hSERT [2] and at hNET [3] was no more than 10 nM each time.
With `Clc1cccc(O[C@H](C2CC2)[C@H]2CCNC2)c1` [Example 16-85, (S)-3-[(R)-(3-Chlorophenoxy)cyclopropylmethyl]pyrrolidine], the inhibition constant Ki on hSERT [1] and on hNET [4] was no more than 10 nM throughout. Also, the IC50 at hSERT [2] is no more than 100 nM; on hNET [3], no more than 10 nM.
For the compound `Fc1c(Cl)cccc1O[C@@H](C1CC1)[C@H]1CCNC1` [Example 16-11, (S)-3-[(S)-(3-Chloro-2-fluorophenoxy)cyclopropylmethyl]pyrrolidine], the Ki on hSERT [1] and at hNET [4] was no more than 10 nM in each case. The IC50 on hSERT [2] and on hNET [3] was no more than 10 nM throughout.
For the compound `CCOc1cc(Cl)ccc1O[C@H](C1CC1)[C@H]1CCNC1` [Example 16-42, (S)-3-[(R)-(4-Chloro-2-ethoxyphenoxy)cyclopropylmethyl]pyrrolidine], the Ki at hSERT [1] is no more than 10 nM; at hNET [4], no more than 100 nM. The IC50 on hSERT [2] and at hNET [3] was no more than 100 nM throughout.
In the case of `Cc1c(Cl)cccc1O[C@@H](CC(C)C)[C@H]1CCNC1` [Example 10-33, (S)-3-[(S)-1-(3-Chloro-2-methylphenoxy)-3-methylbutyl]pyrrolidine], the Ki at hSERT [1] and at hNET [4] was no more than 10 nM throughout. Moreover, the IC50 at hSERT [2] and at hNET [3] was no more than 10 nM each time.
For the compound `CC[C@@H](Oc1ccc(Cl)cc1)[C@H]1CCNC1` [Example 2-4, (S)-3-[(R)-1-(4-Chlorophenoxy)propyl]pyrrolidine], the IC50 is no more than 10 nM at hSERT [2] and no more than 100 nM on hNET [3].
For `Clc1ccc(OC(C2CCCC2)C2CCNC2)cc1` (centres unmarked) [Example 18-11, 3-[(4-Chlorophenoxy)cyclopentylmethyl]pyrrolidine], in that order: no more than 10 nM and no more than 100 nM.
For `CCC[C@@H](Oc1ccc(Cl)c(Cl)c1)[C@@H]1CCNC1` [Example 4-14, (R)-3-[(R)-1-(3,4-Dichlorophenoxy)butyl]pyrrolidine], in that order: no more than 10 nM and no more than 100 nM.
Regarding `CC[C@@H](Oc1cccc(Cl)c1Cl)[C@H]1CCNC1` [Example 2-31, (S)-3-[(R)-1-(2,3-Dichlorophenoxy)propyl]pyrrolidine], the IC50 on hSERT [2] and at hNET [3] was no more than 10 nM throughout.
In the case of `CCC[C@@H](Oc1cc(F)cc(Cl)c1)[C@H]1CCNC1` [Example 4-10, (S)-3-[(R)-1-(3-Chloro-5-fluorophenoxy)butyl]pyrrolidine], the IC50 at hSERT [2] is no more than 100 nM; on hNET [3], no more than 10 nM.
For `CC[C@@H](Oc1cc(F)cc(Cl)c1)[C@H]1CCNC1` [Example 2-11, (S)-3-[(R)-1-(3-Chloro-5-fluorophenoxy)propyl]pyrrolidine], in that order: no more than 100 nM and no more than 10 nM.
For `CCC[C@H](Oc1ccc(Cl)c(F)c1Cl)[C@H]1CCNC1` [Example 4-39, (S)-3-[(S)-1-(2,4-Dichloro-3-fluorophenoxy)butyl]pyrrolidine], in that order: no more than 10 nM and no more than 10 nM.
For `CCC(CC)[C@H](Oc1cccc(Cl)c1Cl)[C@H]1CCNC1` [Example 12-1, (S)-3-[(S)-1-(2,3-Dichlorophenoxy)-2-ethylbutyl]pyrrolidine], in that order: no more than 10 nM and no more than 10 nM.

Broadly, the Ki is a dissociation constant, usually derived from enzyme kinetics or from competition with a known ligand.
